{"source": "patent US20240327444A1", "about": "“Method for Purifying Nucleotides, Device for Purifying Nucleotides, Hy-Drophobic Reagent, and Hydrophobic Substrate” (Japan Science and Technology Agency, priority 2021, published 2024)", "assay_type_in_all_cases": "cell-based", "key": {"HeLa cells [1]": {"test_system": "HeLa cells", "test": "Translation activity of NanoLuc luciferase mRNA (capped with cap analog, reverse-phase HPLC purified) lipofected into HeLa cells (FIG. 30, 31)", "experimental": "In (A) of the figure, a cap analog compound was added, a NanoLuc luciferase mRNA (650-base-long) was transcriptionally synthesized using T7 RNA polymerase, and the transcription reaction was analyzed by denaturing polyacrylamide gel (5%, containing 7.5 M urea as a denaturant) electrophoresis. The composition of the transcription reaction liquid and the reaction conditions are shown below.\n15 ng/μL dsDNA transcription template (PCR product of 676-bp containing T7 promoter sequence 5′TAATACGACTCACTATAG3′-(SEQ ID NO: 1) and containing a NanoLuc luciferase gene coding region derived from a pNL1.1 TK vector (Promega)), 2 mM ATP, 2 mM UTP, 2 mM CTP, 2 mM GTP or [0.5 mM GTP+2 mM Cap Analog], 40 mM Tris-HCl (pH 8.0), 8 mM MgCl2, 2 mM spermidine, 5 mM DTT, 10 units/μL T7 RNA polymerase (Takara Bio Inc.).\nFIG. 30 is a diagram showing the evaluation of the translation activity of a NanoLuc luciferase mRNA after reverse-phase HPLC isolation and purification. The activity was indicated with the expression level of the mRNA prepared without addition of the cap analog being 1.\nFIG. 31 is a diagram showing the evaluation of the translation activity of a NanoLuc luciferase mRNA after reverse-phase HPLC isolation and purification. The activity was indicated with the expression level of the mRNA prepared without addition of the cap analog being 1. […]"}, "[2]": {"test_system": "NF-κB reporter (Luc)-HEK 293 cells", "test": "Evaluation of intracellular immune response, NF-κB reporter luciferase assay (FIG. 43, 45)", "conditions": "FIG. 45; HEK 293 NF-kB cells, 50 ng and 100 ng mRNA, 24 hours", "experimental": "NF-κB reporter (Luc)-HEK 293 cells (BPS Bioscience Inc.) were cultivated (37° C., 5% CO2) in a Dulbecco's modified Eagle's medium (DMEM; WAKO) with addition of 10% fetal bovine serum (FBS; Invitrogen), 100 μg/ml of Hygromycin B. The day before transfection, NF-κB reporter (Luc)-HEK 293 cells were seeded in a 48-well plate (7.5×10^4 cells/well). The next day, the medium was removed and replaced with 225 μL/well Opti-MEM (registered trademark) (Thermo Fisher SCIENTIFIC). 0.375 μL Lipofectamine (registered trademark) Messenger MAX (registered trademark) and 12.5 ng mRNA (DiPure) were diluted in 25 μL Opti-MEM (registered trademark) and introduced into cells. After incubation at 37° C. for 5 hours, 50 μL/well 1× Cell Lysis Buffer (Promega) was added to lyse the cells. Luminescence was measured using ONE-Glo (registered trademark) luciferase assay (registered trademark) (Promega). The protein amount was quantified using Pierce (registered trademark) BCA Protein Assay Kit (Thermo Fisher SCIENTIFIC), and the luminescence value was corrected by the number of cells.\nNF-κB reporter (Luc)-HEK 293 cells (BPS Bioscience Inc.) were cultivated (37° C., 5% CO2) in a Dulbecco's modified Eagle's medium (DMEM; WAKO) with addition of 10% fetal bovine serum (FBS; Invitrogen), 100 μg/ml of Hygromycin B. The day before transfection, NF-κB reporter (Luc)-HEK 293 cells were seeded in a 48-well plate (1.0×10^5 cells/well). The next day, the medium was removed and replaced with 240 μL/well Opti-MEM (registered trademark) (Thermo Fisher SCIENTIFIC). 0.15 μL Lipofectamine (registered trademark) Messenger MAX (registered trademark) and 100 ng mRNA were diluted in 10 μL Opti-MEM (registered trademark) and introduced into cells. After incubation at 37° C. for 24 hours, 50 μL/well 1× Cell Lysis Buffer (Promega) was added to lyse the cells. Luminescence was measured using ONE-Glo (registered trademark) luciferase assay (registered trademark) (Promega). The protein amount was quantified using Pierce (registered trademark) BCA Protein Assay Kit (Thermo Fisher SCIENTIFIC), and the luminescence value was corrected by the number of cells."}, "JAWS II cells": {"test_system": "JAWS II cells", "test": "Translation activity of Luc2 mRNA transcriptionally synthesized using a cap analog, JAWS II cells (FIG. 38)", "conditions": "lipofection, after 24 hours, versus Tri_1 (CleanCap Reagent AG structure)", "experimental": "(§1) An RNA was transcriptionally synthesized with T7 RNA polymerase using a double-stranded DNA as a template. The double-stranded DNA of the template was obtained by amplifying pSP73-a-luc2 (described at the end of the experimental section) encoding the Luc2 gene by a PCR reaction using KOD-Plus-Neo (TOYOBO), Fw primer (cgcgttggccgattcatt: SEQ ID NO: 3), Rev primer ([…]: SEQ ID NO: 4) (1.0 ng/μL DNA vector, 1×KOD-Plus-Neo buffer, 0.2 mM dNTPs, 0.3 μM primers, 1.5 mM MgSO4, 0.02 units/μL polymerase). […]\n(§2) Deprotection by photoirradiation: The RNA solution was added to a transparent 96-multiwell plate, and irradiated with 365 nm light at a quantity of light of 4 mW/cm^2 for 15 minutes using a MAX-305 light source device (Asahi Spectra Co., Ltd.). […]\nFIG. 38 is a diagram showing the result of evaluation of translation activity in JAWS II cells of an RNA transcriptionally synthesized using a cap analog. […] After 24 hours, the cells were lysed and the luminescence of firefly luciferase was measured. […]\nEvaluation of intracellular translation activity (JAWS II cells): JAWS II cells (ATCC) were cultivated (37° C., 5% CO2) in Minimum Essential Medium α(MEM α; Thermo Fisher SCIENTIFIC) with addition of 10% fetal bovine serum (FBS; Invitrogen) and GM-CSF (5 ng/mL). […] Luminescence was measured using ONE-Glo (registered trademark) luciferase assay (registered trademark) (Promega)."}, "HeLa cells [3]": {"test_system": "HeLa cells", "test": "Translation activity of Luc2 mRNA transcriptionally synthesized using a cap analog, HeLa cells (FIG. 37)", "conditions": "lipofection, after 24 hours, versus Tri_1 (CleanCap Reagent AG structure)", "experimental": "as §1, §2\nFIG. 37 is a diagram showing the result of evaluation of translation activity in a HeLa cell of RNAs transcriptionally synthesized using a cap analog. […] After 24 hours, the cells were lysed and the luminescence of firefly luciferase was measured. […]\nHeLa cells (RIKEN Cell Bank) were cultivated (37° C., 5% CO2) in Dulbecco's modified Eagle's medium (DMEM; WAKO) with addition of 10% fetal bovine serum (FBS; Invitrogen). […] Luminescence was measured using ONE-Glo (registered trademark) luciferase assay (registered trademark) (Promega)."}}, "note": "“Also recorded” adds a separate entry of the source."}
{"molecule": "C[n+]1cn([C@@H]2O[C@H](COP(=O)(O)OP(=O)([O-])OP(=O)(O)OC[C@H]3O[C@@H](n4cnc5c(=O)[nH]c(N)nc54)C(O)[C@H]3O)[C@H](O)C2OCOC(c2ccccc2[N+](=O)[O-])C(C)(C)C)c2nc(N)nc(O)c21", "note": "(mixture of isomers) [Cap Analog_2, P1-{N^7-Methyl-2′-O-[2,2-dimethyl-(R/S)-1-(2-nitrophenyl)propyloxy]methylguanosin-5′-yl} P3-guanosin-5′-yl triphosphate]", "values": [{"measurement": "translation activity compared with mRNA prepared using ARCA cap analog", "setting": "HeLa cells [1]; FIG. 31, mRNA 5 ng/well, cultivated 23 hours", "result": "higher translation activity compared to the RNA capped with ARCA"}]}
{"molecule": "COC1[C@@H](OP(=O)([O-])OC[C@H]2O[C@@H](n3cnc4c(=O)[nH]c(N)nc43)C(O)[C@H]2O)[C@@H](COP(=O)([O-])OP(=O)([O-])OP(=O)([O-])OC[C@H]2O[C@@H](n3c[n+](C)c4c([O-])nc(N)nc43)C(OCOC(c3ccccc3[N+](=O)[O-])C(C)(C)C)[C@H]2O)O[C@H]1n1cnc2c(N)ncnc21.[Na+].[Na+].[Na+].[Na+]", "note": "(some centres unmarked) [TriPure_1, Nb-^m7GpppA(2′OCH3)pG]", "values": [{"measurement": "intracellular immune response (NF-κB reporter luminescence)", "setting": "[2]", "result": "lower immune response than conventional mRNAs synthesized using ARCA"}, {"measurement": "translation activity relative to Tri_1 (firefly luciferase luminescence)", "setting": "JAWS II cells", "result": "about 24 times"}, {"measurement": "translation activity relative to Tri_1 (firefly luciferase luminescence)", "setting": "HeLa cells [3]", "result": "about 2 times"}]}
{"molecule": "P1-(N^2-tBu-nitrobenzyloxycarbonyl-N^7-methylguanosin-5′-yl) P3-guanosin-5′-yl triphosphate [Cap Analog_1]", "values": [{"measurement": "translation activity (amount of expressed NanoLuc luciferase; expression level of mRNA prepared without cap analog being 1)", "setting": "HeLa cells [1]; FIG. 30, mRNA 20 ng/well, cultivated 7 hours, before and after photoirradiation/deprotection", "result": "does not show high translation activity unless it is irradiated with light and deprotected; also recorded: can completely inhibit translation activity in the protected state"}]}
